From patent US12507703B2, “Methods, devices and compositions for preserving human milk” (The Trustees of Princeton University, priority 2023, dated 2025)

system: lipase; assay: Lipase/lipolysis assay (EnzChek Lipase Substrate, quenched BODIPY-fatty acid conjugate) on stored human milk; note: test concentration or dose not given here

| Molecule | Lipase (RFU) |
| --- | --- |
| CC1(C)CC[C@]2(C(=O)O)CC[C@]3(C)C(=CC[C@@H]4[C@@]5(C)C[C@@H](O)[C@H](O)C(C)(C)[C@@H]5CC[C@]43C)[C@@H]2C1 [Maslinic acid] | 1120.923 RFU |
| CN1[C@@H]2CC[C@H]1C[C@@H](OC(=O)C(CO)c1ccccc1)C2 (some centres unmarked) [Atropine] | 1104.016 RFU |
| CC(C)=CCc1cc2c(cc1O)oc(=O)c1c3ccc(O)cc3oc21 [Psoralidin] | 1084.87 RFU |
| NC(=O)c1ccc[n+]([C@@H]2O[C@H](COP(=O)([O-])OP(=O)(O)OC[C@H]3O[C@@H](n4cnc5c(N)ncnc54)[C@H](OP(=O)([O-])[O-])[C@@H]3O)[C@@H](O)[C@H]2O)c1.[Na+].[Na+] [NADP (disodium salt)] | 762.8961 RFU |
| O=C(O)c1ccc2ccccc2n1 [Quinoline-2-carboxylic acid] | 994.8984 RFU |
| OCc1c[nH]c2ccccc12 [Indole-3-carbinol] | 1082.489 RFU |
| COC(=O)[C@@]1(C)CC[C@]2(C(=O)O)CC[C@]3(C)C(=CC[C@@H]4[C@@]5(C)C[C@H](O)[C@H](O[C@@H]6OC[C@@H](O[C@@H]7O[C@H](CO)[C@@H](O)[C@H](O)[C@H]7O)[C@H](O)[C@H]6O)[C@@](C)(CO)[C@@H]5CC[C@]43C)[C@@H]2C1 [Esculentoside A] | 755.0304 RFU |
| 1,4-Dicaffeoylquinic acid | 794.8464 RFU |
| NC(=O)NCCCC(N)C(=O)O (centres unmarked) [2-Amino-5-ureidopentanoic acid] | 983.9261 RFU |
| O=C(O)[C@H]1O[C@@H](Oc2cc(O)c3c(=O)cc(-c4ccc(O)c(O)c4)oc3c2)[C@H](O)[C@@H](O)[C@@H]1O [Luteolin 7-O-glucuronide] | 995.7867 RFU |
| C=CCc1cc(OC)c2c(c1)OCO2 [Myristicin] | 960.4671 RFU |
| Nc1nc(=O)c2c([nH]1)NCC(CNc1ccc(C(=O)N[C@@H](CCC(=O)O)C(=O)O)cc1)N2C=O (mixture of isomers) [Folinic acid] | 949.4803 RFU |
| CC[C@H](N)C(=O)O [H-Abu-OH] | 993.6587 RFU |
| CNC(C)(C)C(=O)O [MeAIB] | 1061.964 RFU |
| COc1cc(COC(=O)CCCC/C=C/C(C)C)ccc1O [Capsiate] | 1078.823 RFU |
| CCCCCCCCCCCCCCCCCC(=O)O[C@H](CC(=O)[O-])C[N+](C)(C)C [Stearoylcarnitine] | 900.7392 RFU |
| CC(C)=CCC[C@](C)(O)[C@H]1CC[C@]2(C)[C@@H]1[C@H](O)C[C@@H]1[C@@]3(C)CC[C@H](O)C(C)(C)[C@@H]3[C@@H](O[C@@H]3O[C@H](CO)[C@@H](O)[C@H](O)[C@H]3O[C@@H]3OC[C@@H](O)[C@H](O)[C@H]3O)C[C@]12C [Notoginsenoside R2] | 955.4855 RFU |
| Cc1ccc(C=O)cc1 [p-Tolualdehyde] | 1029.761 RFU |
| Oc1cc(O)c2c(c1)O[C@H](c1ccc(O)c(O)c1)[C@H](O)[C@H]2c1c(O)cc(O)c2c1O[C@H](c1ccc(O)c(O)c1)[C@H](O)C2 [Procyanidin B2] | 808.3168 RFU |
| O=c1c(O[C@@H]2O[C@H](CO)[C@H](O)[C@H](O)[C@H]2O[C@@H]2O[C@H](CO)[C@@H](O)[C@H](O)[C@H]2O)c(-c2ccc(O)cc2)oc2cc(O)cc(O)c12 [Panasenoside] | 1093.409 RFU |
| COC1=C(OC)C(=O)C(C/C=C(\C)CC/C=C(\C)CC/C=C(\C)CC/C=C(\C)CC/C=C(\C)CC/C=C(\C)CC/C=C(\C)CC/C=C(\C)CCC=C(C)C)=C(C)C1=O [Coenzyme Q9] | 1106.833 RFU |
| COc1cc(C[C@H](C)[C@H](C)Cc2ccc3c(c2)OCO3)ccc1O [Macelignan] | 621.9317 RFU |
| CCCCCCCCC[C@H](O)CC(=O)CCc1ccc(O)c(OC)c1 [Compound 10-Gingerol] | 817.7781 RFU |
